Structures are written as SMILES. pEC50: −log10 of the molar value.

One series concerns TZM. Description: Cytotoxicity against human TZM-bl cells measured upto 0.1 uM. Format: toxicity, cell-based.
For series [1], the system named is Human immunodeficiency virus 1. Description: Antiviral activity against HIV1 in human TZM-bl cells transfected with firefly luciferase and beta-galactosidase reporter genes assessed as activation of LTR-mediated transcriptional activity incubated for 24 hrs by luciferase reporter gene assay. The class given is functional, organism-based. To be noted: Human immunodeficiency virus 1, TZM-bl. (In general: A reporter such as luciferase makes a cellular process visible.)

For `CCCCC/C=C\CCC(=O)O[C@@]12[C@H](OC(=O)c3ccccc3)[C@@H](C)[C@@]3(O)[C@@H](C=C(CO)C[C@]4(O)C(=O)C(C)=C[C@@H]34)[C@@H]1C2(C)C`, in the series on TZM, the Activity entry was “Non-Toxic”. In series [1], the negative logarithm of the EC50 (pEC50) (in general, the negative decadic logarithm of the EC50, by convention in mol/L) is 8.38.

As to `CC/C=C\C/C=C\CCC(=O)O[C@@]12[C@H](OC(=O)c3ccccc3)[C@@H](C)[C@@]3(O)[C@@H](C=C(CO)C[C@]4(O)C(=O)C(C)=C[C@@H]34)[C@@H]1C2(C)C`, the negative-log EC50 (pEC50) in series [1] is 8.49.

As to `CCCCCCCC(=O)O[C@@]12[C@H](OC(=O)c3ccccc3)[C@@H](C)[C@]3(O)[C@@H]4C=C(C)C(=O)[C@@]4(O)[C@H](O)C(CO)=C[C@H]3[C@@H]1C2(C)C`, in series [1], the pEC50 is 7.92.

Regarding `CCCCC/C=C\CCC(=O)O[C@@H]1[C@@H](C)[C@@]2(O)[C@@H](C=C(CO)C[C@]3(O)C(=O)C(C)=C[C@@H]23)[C@@H]2C(C)(C)[C@]12OC(=O)c1ccccc1`, the Activity entry in the series with TZM was “Non-Toxic”. Moreover, in series [1], the negative logarithm of the EC50 (pEC50) is 7.74.

Turning to `CCC(=O)O[C@@]12[C@H](OC(=O)c3ccccc3)[C@@H](C)[C@@]3(O)[C@@H](C=C(CO)C[C@]4(O)C(=O)C(C)=C[C@@H]34)[C@@H]1C2(C)C`, the Activity entry with TZM is recorded as “Non-Toxic”. Besides, the negative-log EC50 (pEC50) in series [1] is 8.00.

As for `CCCCC/C=C/CCC(=O)O[C@@]12[C@H](OC(=O)c3ccccc3)[C@@H](C)[C@@]3(O)[C@@H](C=C(CO)C[C@]4(O)C(=O)C(C)=C[C@@H]34)[C@@H]1C2(C)C`, in the series with TZM, the Activity result is listed as “Non-Toxic”. Moreover, the pEC50 in series [1] was 8.24.

For `CCCCCCC(=O)O[C@@]12[C@H](OC(=O)c3ccccc3)[C@@H](C)[C@@]3(O)[C@@H](C=C(CO)C[C@]4(O)C(=O)C(C)=C[C@@H]34)[C@@H]1C2(C)C`, the negative logarithm of the EC50 (pEC50) in series [1] is 9.03.

As for `CCCCC/C=C\C/C=C\CCCCCCCC(=O)O[C@@]12[C@H](OC(=O)c3ccccc3)[C@@H](C)[C@@]3(O)[C@@H](C=C(CO)C[C@]4(O)C(=O)C(C)=C[C@@H]34)[C@@H]1C2(C)C`, the Activity result with TZM was “Non-Toxic”. In addition, the pEC50 in series [1] was 7.89.

In the case of `CCCCCCCC(=O)O[C@@]12[C@H](OC(=O)c3ccccc3)[C@@H](C)[C@@]3(O)[C@@H](C=C(CO)C[C@]4(O)C(=O)C(C)=C[C@@H]34)[C@@H]1C2(C)C`, the pEC50 in series [1] is 8.82.

Take `C=C(C)[C@]12C[C@@H](COC(C)=O)[C@@]34OC5(O[C@@H]1[C@@H]3[C@@H]1O[C@]1(CO)[C@@H](O)[C@@]1(O)[C@H]4[C@H]([C@H](C)[C@@H]1OCc1ccccc1)[C@H](C)CCCCCC[C@H]5O)O2`: in series [1], the pEC50 is 9.48.

Turning to `CCCCCCCCCCCCCCCCCC(=O)O[C@@]12[C@H](OC(=O)c3ccccc3)[C@@H](C)[C@@]3(O)[C@@H](C=C(CO)C[C@]4(O)C(=O)C(C)=C[C@@H]34)[C@@H]1C2(C)C`, the Activity result with TZM is “Non-Toxic”.

For `C=C(C)[C@]12C[C@@H](COC(C)=O)[C@@]34OC5(O[C@@H]1[C@@H]3[C@@H]1O[C@]1(CO)[C@@H](O)[C@@]1(O)[C@H]4[C@H]([C@H](C)[C@@H]1OCc1ccccc1)[C@H](C)C[C@H](OCc1ccccc1)CCCC[C@H]5O)O2`, the pEC50 in series [1] is 7.92.

`CCCCC/C=C/C/C=C\C/C=C\CCCCC(=O)O[C@@]12[C@H](OC(=O)c3ccccc3)[C@@H](C)[C@@]3(O)[C@@H](C=C(CO)C[C@]4(O)C(=O)C(C)=C[C@@H]34)[C@@H]1C2(C)C`: the Activity entry with TZM is “Non-Toxic”. In series [1], the pEC50 was 8.00.

As to `CCCCCCCC/C=C\CCCCCCCC(=O)O[C@@]12[C@H](OC(=O)c3ccccc3)[C@@H](C)[C@@]3(O)[C@@H](C=C(CO)C[C@]4(O)C(=O)C(C)=C[C@@H]34)[C@@H]1C2(C)C`, the Activity result with TZM is recorded as “Non-Toxic”. Moreover, the negative logarithm of the EC50 (pEC50) in series [1] is 7.80.

Consider `C=C(C)[C@]12C[C@@H](COCc3ccccc3)[C@@]34OC5(CCCCC[C@@H](OCc6ccccc6)C[C@@H](C)[C@H]6[C@H](C)[C@H](OCc7ccccc7)[C@@](O)([C@H](O)[C@@]7(CO)O[C@H]7[C@H]3[C@H]1O5)[C@@H]64)O2`, for which the negative logarithm of the EC50 (pEC50) in series [1] was 8.41.

For the compound `C=C(C)[C@]12C[C@@H](COCc3ccccc3)[C@@]34OC5(CCCCCCC[C@@H](C)[C@H]6[C@H](C)C(=O)[C@@](O)([C@H](O)[C@@]7(CO)O[C@H]7[C@H]3[C@H]1O5)[C@@H]64)O2`, the pEC50 in series [1] is 8.43.

In the case of `C=C(C)[C@]12C[C@@H](C)[C@@]34OC5(CCCCCCC[C@@H](C)[C@H]6[C@H](C)[C@H](OCc7ccccc7)[C@@](O)([C@H](O)[C@@]7(CO)O[C@H]7[C@H]3[C@H]1O5)[C@@H]64)O2`, in series [1], the pEC50 was 8.57.

In the case of `C=C(C)[C@]12CC[C@@]34OC(C)(O[C@@H]1[C@@H]3[C@@H]1O[C@]1(CO)[C@@H](O)[C@]1(O)[C@@H](OCc3ccccc3)[C@@H](C)C[C@@H]41)O2`, the negative logarithm of the EC50 (pEC50) in series [1] is 9.85.

With `CC/C=C\C/C=C\C/C=C\CCCCCCCC(=O)O[C@@]12[C@H](OC(=O)c3ccccc3)[C@@H](C)[C@@]3(O)[C@@H](C=C(CO)C[C@]4(O)C(=O)C(C)=C[C@@H]34)[C@@H]1C2(C)C`, the Activity result with TZM is given as “Non-Toxic”. Besides, in series [1], the pEC50 was 8.12.

On to `C=C(C)[C@]12CC[C@@]34OC(C)(O[C@@H]1[C@@H]3[C@@H]1O[C@]1(CO)[C@@H](O)[C@]1(O)C(=O)[C@@H](C)C[C@@H]41)O2`, for which the negative logarithm of the EC50 (pEC50) in series [1] is 8.43.

As to `C=C(C)[C@]12C[C@@H](C)[C@@]34O[C@]5(CCCCCCC[C@H](C)[C@H]6[C@H](C)C(=O)[C@@](O)([C@H](O)[C@@]7(CO)O[C@H]7[C@H]3[C@H]1O5)[C@@H]64)O2`, the pEC50 in series [1] was 8.16.

As for `C=C(C)[C@]12C[C@@H](C)[C@@]34O[C@@](CCCCCCCCC)(O[C@@H]1[C@@H]3[C@@H]1O[C@]1(CO)[C@@H](O)[C@]1(O)C(=O)C(C)=C[C@H]14)O2`, in series [1], the pEC50 is 8.05.

Consider `C=C(C)[C@@]12O[C@]3(/C=C/C=C/CCCCCCCCC)O[C@@H]1[C@@H]1[C@@H]4O[C@]4(CO)[C@@H](O)[C@]4(O)C(=O)C(C)=C[C@H]4[C@@]1(O3)[C@H](C)[C@H]2OC(C)=O`, for which the negative logarithm of the EC50 (pEC50) in series [1] is 9.41.

For the compound `CCCCCCCCCC(=O)O[C@@]12[C@H](OC(=O)c3ccccc3)[C@@H](C)[C@@]3(O)[C@@H](C=C(CO)C[C@]4(O)C(=O)C(C)=C[C@@H]34)[C@@H]1C2(C)C` [STELLERARIN], in series [1], the negative logarithm of the EC50 (pEC50) was 9.13.
